# Test results reported in PubChem BioAssay AID1919010 (Molecular Pharmacology Branch, DTP, NCI, 2023).
# System: Hs578T complex spheroid growth, percent test/control
# Test: Anticancer human tumor Hs578T cell line growth inhibition [AhR];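 also: luminescent viability signal as a proxy for spheroid growth; spheroids exposed to agents for one week after three days of growth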
# Conditions: for IC50: curve of first compound; for viability, T/C: stronger effect = lower value
# Text: Multicellular complex tumor spheroid response to aryl hydrocarbon receptor antagonists in combination with a variety of drugs and investigational agents in selected tumor cell lines
# The current study was undertaken to assess response to aryl hydrocarbon receptor antagonists in combination with standard-of-care drugs and investigational agents in solid tumor complex spheroid models. Complex spheroids include a stromal component modeled by human endothelial cells (HUVEC) and fibroblasts modeled by human mesenchymal stem cells (MSCs). The concentration ranges selected for each drug and investigational agent were based upon clinically achievable concentrations if the clinical Cmax of the agent was known.
# Compounds. The drugs and investigational agents: BAY 2416964 (NSC825713), GNF351 (NSC835774), CH-223191 (NSC835775), CPI-455 (NSC825282), aza-TdCyd (NSC777586), decitabine (NSC127716), belinostat (NSC758774), entinostat (NSC756642), pevonedistat (NSC761192), tazemetostat (NSC777109), talazoparib (NSC765396), olaparib (NSC753686), selinexor (NSC780203), nedisertib (M3814, NSC802822), bortezomib (NSC756655), venetoclax (NSC766270), doxorubicin (NSC123127), elimusertib (BAY189344, NSC800525), ceralasertib (AZD6738, NSC777638), TAK-243 (NSC785004), alisertib (NSC759677), etoposide (NSC141540), topotecan (NSC609699), eribulin (NSC707389), gemcitabine (NSC613327), carboplatin (NSC241240), cisplatin (NSC119875), and SN-38 (NSC673596) were obtained from the National Cancer Institute (NCI) Developmental Therapeutics Program Chemical Repository (32). The FDA-approved anticancer drug set is available from the Developmental Therapeutics Program at https://dtp.cancer.gov/organization/dscb/obtaining/available plates.htm. […] The stock solutions were prepared in dimethyl sulfoxide (DMSO, Sigma-Aldrich, St. Louis, MO, cat. D2650), except for the platinum compounds which were prepared in saline (Quality Biological, Gaithersburg, MD, cat. 114-055-101), at 800-fold the tested concentration and stored at -70 degrees C prior to their use. All drugs and investigational agents were tested over a range starting from a high concentration at or near the clinical Cmax and decreasing in half-log increments. If the clinical Cmax for an agent had not been determined, the highest concentration tested was 10 microM (Table 1).
# Cell Culture. All cells were maintained in an incubator at 37 degrees C and 5% CO2 with 95% humidity. The PDC lines were cultured according to standard operating procedures established by the NCI PDMR (https://pdmr.cancer.gov). Briefly, all PDCs were thawed and cultured in Matrigel-coated flasks prepared with a working solution of 1X Ham's F-12 nutrient mix, without supplementation (Invitrogen, Waltham, MA, cat. 11765054), 100 U/mL penicillin-streptomycin (Invitrogen, cat. 15140122), and 2.5% Matrigel (Corning Inc., Corning, NY, cat. 354248) for the first three passages. All PDCs were cultured in complete DMEM/F-12 media containing advanced DMEM/F-12 (Invitrogen, cat. 12634028), 4.9% defined fetal bovine serum, heat inactivated (HyClone Laboratories Inc., Logan, UT, cat. SH30070.03HI), 389 ng/mL hydrocortisone (Sigma-Aldrich, cat. H4001), 9.7 ng/mL human EGF recombinant protein (Invitrogen, cat. PHG0313), 23.4 microg/mL adenine (Sigma-Aldrich, cat. A2786), 97.3 U/mL penicillin-streptomycin (Invitrogen, cat. 15140122), 1.9 mM L-glutamine (Invitrogen, cat. 25030081), and 9.7 microM Y-27632 dihydrochloride (Tocris Bioscience, Bristol, United Kingdom, cat. 1254). The PDCs were cultured in complete DMEM/F12 media without 10 microM Y-27632 dihydrochloride for at least two passages prior to the screen. The established cell lines NCI-H1341 and […] were cultured in DMEM/F-12, HEPES (Invitrogen, cat. 11330032), 5% defined fetal bovine serum (HyClone Laboratories Inc., cat. SH30070.03), ITS premix universal culture supplement [insulin (5 microg/mL), transferrin (5 microg/mL), and selenious acid (5 ng/mL)] […]
smiles,measurement,setting,value
CC(C)CC(NC(=O)C(Cc1ccccc1)NC(=O)c1cnccn1)B(O)O (stereo not given) + CC(CO)NC(=O)c1cc(-c2ccc(Cl)cc2)nn(-c2cnn(C)c2)c1=O,IC50,second compound 0.1 µM,4.72 nM
same,IC50,second compound 0.316 µM,4.44 nM
same,IC50,second compound 1 µM,4.61 nM
same,IC50,second compound 3.16 µM,5.03 nM
same,IC50,second compound 10 µM,3.79 nM
same,"viability, T/C","second compound 0.1 µM, first compound 0.000949 µM",97.9%
same,"viability, T/C","second compound 0.1 µM, first compound 0.003 µM",75.7%
same,"viability, T/C","second compound 0.1 µM, first compound 0.00949 µM",10.4%
same,"viability, T/C","second compound 0.1 µM, first compound 0.03 µM",0.34%
same,"viability, T/C","second compound 0.1 µM, first compound 0.0949 µM",0.56%
same,"viability, T/C","second compound 0.1 µM, first compound 0.3 µM",0.73%
same,"viability, T/C","second compound 0.316 µM, first compound 0.000949 µM",109%
same,"viability, T/C","second compound 0.316 µM, first compound 0.003 µM",72.6%
same,"viability, T/C","second compound 0.316 µM, first compound 0.00949 µM",6.27%
same,"viability, T/C","second compound 0.316 µM, first compound 0.03 µM",0.48%
same,"viability, T/C","second compound 0.316 µM, first compound 0.0949 µM",0.41%
same,"viability, T/C","second compound 0.316 µM, first compound 0.3 µM",0.41%
same,"viability, T/C","second compound 1 µM, first compound 0.000949 µM",102%
same,"viability, T/C","second compound 1 µM, first compound 0.003 µM",72%
same,"viability, T/C","second compound 1 µM, first compound 0.00949 µM",13.1%
same,"viability, T/C","second compound 1 µM, first compound 0.03 µM",0.32%
same,"viability, T/C","second compound 1 µM, first compound 0.0949 µM",0.27%
same,"viability, T/C","second compound 1 µM, first compound 0.3 µM",0.39%
same,"viability, T/C","second compound 3.16 µM, first compound 0.000949 µM",102%
same,"viability, T/C","second compound 3.16 µM, first compound 0.003 µM",80.1%
same,"viability, T/C","second compound 3.16 µM, first compound 0.00949 µM",13.2%
same,"viability, T/C","second compound 3.16 µM, first compound 0.03 µM",0.29%
same,"viability, T/C","second compound 3.16 µM, first compound 0.0949 µM",0.26%
same,"viability, T/C","second compound 3.16 µM, first compound 0.3 µM",0.35%
same,"viability, T/C","second compound 10 µM, first compound 0.000949 µM",85.6%
same,"viability, T/C","second compound 10 µM, first compound 0.003 µM",59.8%
same,"viability, T/C","second compound 10 µM, first compound 0.00949 µM",11.6%
same,"viability, T/C","second compound 10 µM, first compound 0.03 µM",0.72%
same,"viability, T/C","second compound 10 µM, first compound 0.0949 µM",0.38%
same,"viability, T/C","second compound 10 µM, first compound 0.3 µM",0.53%
Nc1ccccc1NC(=O)c1ccc(CNC(=O)OCc2cccnc2)cc1 + CC(CO)NC(=O)c1cc(-c2ccc(Cl)cc2)nn(-c2cnn(C)c2)c1=O,IC50,second compound 0.1 µM,1610 nM
same,IC50,second compound 0.316 µM,1700 nM
same,IC50,second compound 1 µM,1660 nM
same,IC50,second compound 3.16 µM,1720 nM
same,IC50,second compound 10 µM,1260 nM
same,"viability, T/C","second compound 0.1 µM, first compound 0.0316 µM",124%
same,"viability, T/C","second compound 0.1 µM, first compound 0.1 µM",122%
same,"viability, T/C","second compound 0.1 µM, first compound 0.316 µM",108%
same,"viability, T/C","second compound 0.1 µM, first compound 1 µM",68.3%
same,"viability, T/C","second compound 0.1 µM, first compound 3.16 µM",24%
same,"viability, T/C","second compound 0.1 µM, first compound 10 µM",1.8%
same,"viability, T/C","second compound 0.316 µM, first compound 0.0316 µM",111%
same,"viability, T/C","second compound 0.316 µM, first compound 0.1 µM",118%
same,"viability, T/C","second compound 0.316 µM, first compound 0.316 µM",111%
same,"viability, T/C","second compound 0.316 µM, first compound 1 µM",65.8%
same,"viability, T/C","second compound 0.316 µM, first compound 3.16 µM",30%
same,"viability, T/C","second compound 0.316 µM, first compound 10 µM",1.83%
same,"viability, T/C","second compound 1 µM, first compound 0.0316 µM",121%
same,"viability, T/C","second compound 1 µM, first compound 0.1 µM",118%
same,"viability, T/C","second compound 1 µM, first compound 0.316 µM",112%
same,"viability, T/C","second compound 1 µM, first compound 1 µM",64.3%
same,"viability, T/C","second compound 1 µM, first compound 3.16 µM",29.6%
same,"viability, T/C","second compound 1 µM, first compound 10 µM",2.16%
same,"viability, T/C","second compound 3.16 µM, first compound 0.0316 µM",115%
same,"viability, T/C","second compound 3.16 µM, first compound 0.1 µM",118%
same,"viability, T/C","second compound 3.16 µM, first compound 0.316 µM",109%
same,"viability, T/C","second compound 3.16 µM, first compound 1 µM",70.9%
same,"viability, T/C","second compound 3.16 µM, first compound 3.16 µM",25.9%
same,"viability, T/C","second compound 3.16 µM, first compound 10 µM",2.04%
same,"viability, T/C","second compound 10 µM, first compound 0.0316 µM",111%
same,"viability, T/C","second compound 10 µM, first compound 0.1 µM",106%
same,"viability, T/C","second compound 10 µM, first compound 0.316 µM",97.2%
same,"viability, T/C","second compound 10 µM, first compound 1 µM",58.2%
same,"viability, T/C","second compound 10 µM, first compound 3.16 µM",16%
same,"viability, T/C","second compound 10 µM, first compound 10 µM",0.84%
